Results from US12661308B2, “Antimicrobial AZO compounds and uses thereof” (The Regents Of The University Of Colorado, A Body Corporate, priority 2019, dated 2026).
Entries after “also recorded” stand apart in the source; their conditions may differ.

Assays:
[1] = tested on: L929 mouse epithelial cells; assay: MTT cytotoxicity of coated substrates (Example 3); format: cell-based; conditions: 0.5 mg/mL and 50 mg/mL coated substrates, cells grown 100 hr, relative to uncoated sample and negative control
Procedure: In this Example, the cytotoxicity of polymeric substrates coated with 0.5 mg/mL OH-AAZO and 50 mg/mL OH-AAZO in the manner described in Example 1 were tested using L929 mouse epithelial cells. The following six samples were prepared: polymeric substrate coated with 50 mg/mL OH-AAZO, polymeric substrate coated with 0.5 mg/mL OH-AAZO, uncoated polymeric substrate, positive control, negative control, and an empty well. All coatings were spin coated. All samples were run in triplicate.
The cells were grown on substrates for 100 hr with media replacement when necessary. L929 conditions: Passage 3. Initial concentration of cells: 1.67×10^4 cells/mL.
Methods and assumptions: • Wells containing MTT product were analyzed at 570 nm. • OD570 values were corrected based on OD570 values of wells containing MTT product+other reagents only (no cells). • Assumes 100% cell death (i.e., 0% cell viability) in these positive control wells. • Negative control (−) wells contained cells grown with no substrate. • Assumes all cell death occurred naturally.
Cell viability was calculated using the following equation: […]

[2] = tested on: L929 mouse epithelial cells; assay: Cytotoxicity study, MTT (Example 4); format: cell-based; conditions: 50 mg/mL coated substrates
Procedure: Cytotoxicity studies were performed as described previously. Riss et al., Cell Viability Assays, (Promega). Briefly, L929 mouse epithelial cells were suspended in cell culture media (DMEM, 10% FBS, 1% penicillin streptomycin) to a final concentration of 1.06×10^5 cells/mL. 1 mL of the suspension was added to each well in a 24-well plate containing the substrates and allowed to grow to confluence. Cell growth was monitored via a phase contrast inverted microscope (Leica, WLD MPS32, Germany). Once confluent, the media was aspirated off, and 500 μL of a 1 mg/mL solution of MTT reagent in DMEM media was added to each well. The plate was incubated for 4 h, and 500 μL of 20% SDS in 50% DMF was added to each well containing the MTT reagent. The plate was incubated for an additional 24 h, then removed and analyzed by an absorbance reading at λ=570 nm (FIG. 10).

E. coli biofilm = assay: Biofilm growth study, E. coli; format: cell-based, Escherichia coli; conditions: 50 mg/mL coated substrate, 24 h time-period
Procedure: E. coli biofilms were grown from a 20 h BHI inoculated with an E. coli colony. The liquid culture was diluted 10^3 to a stock solution in BHI, then diluted 1:10 in BHI media in a 96-well plate. The plate was incubated in the dark at 37° C. for 24 h.
Following biofilm growth in the 96-well plate, the substrates were aseptically removed from the 96-well plate and placed in a vial containing 5 mL of 1× PBS solution. The vials were sonicated in a water bath for 10 min at 45° C., and the wells that previously contained the substrates were briefly sonicated using a probe sonicator (3 W RMS output) for 10 s per well. 200 μL aliquots of the sonicated PBS solution were placed in a 96-well plate and diluted 1:10 in each subsequent row. 20 μL aliquots of the sonicated media wells were placed in a 96-well plate containing 180 μL of PBS solution and diluted 1:10 in each subsequent row. Each column was then plated at a volume of 10 μL on a BHI agar plate in triplicate. The plates were then incubated at 37° C. and 5% CO2 for 48 h. The CFUs on each plate were counted in order to quantify the amount of biofilm remaining on the surface of the substrate and the bacteria remaining in the media after the removal of the substrate using the following equations: […]

[3] = tested on: S. agalactiae (Group B strep, GBS); assay: Growth study, S. agalactiae (Group B strep); format: cell-based, Streptococcus agalactiae; conditions: 50 mg/ML coated substrates, BHI media, 24 h time-period
Procedure: A single bacterial colony was inoculated in 4 mL BHI media. The colony was grown to mid-log phase (to approximately OD600=0.4), statically at 37° C., which for was approximately 4 hours for the S. agalactiae GBS, approximately 11 hours for the S. pyogenes GAS, and approximately 6 hours for the S. pneumaoniae. They were diluted 1:5 in 80% glycerol (in water) solution (4 parts culture, 1 part glycerol, for a final glycerol concentration of 16%). In a 96-well plate, each was diluted to 1:100 resulting in a final concentration of 1×10^6 CFU/mL and grown at 37° C. with 5% CO2.

S. mutans = assay: Kill curve kinetic study of S. mutans in media surrounding the coated substrate; format: cell-based, Streptococcus mutans
Procedure: FIG. 13 are images from a complete plating of media of S. mutans in contact with OH-AAZO-coated substrates at different timepoints following seeding. The media sampled shown in FIG. 13 (A) at t=0 h was serial diluted as described in Example 4 (below) and gave a total CFU count of (8.0±3.2)×10^6 CFUs. The media sampled shown in FIG. 13 (B) at t=4 h was streaked across the entire plate and gave a total CFU count of 8 CFUs. The media sampled shown in FIG. 13 (C) at t=24 h was streaked across the entire plate and gave a total CFU count of 0 CFUs.
We sampled aliquots of the media containing S. mutans surrounding the OH-AAZO substrate at different time points (FIG. 4). At t=0, S. mutans colonies (1×10^6 CFUs) were introduced to the OH-AAZO coated substrate. At t=4 h, the CFU count in the well was reduced 2-log, and by t=6 h, the CFU count had reduced to zero.

Question: For `C=CC(=O)Oc1ccccc1/N=N/c1ccccc1O` [OH-AAZO, phenolic acrylated azobenzene], which “cytotoxicity (cell viability, MTT)” value [1] is on record?
Answer: The value was “non-cytotoxic; also recorded: does not contribute significantly to cytotoxicity”.

Question: What about the cytocompatibility [2] of the same compound?
Answer: Its cytocompatibility is “cytocompatible”.

Question: What about the “antibacterial effect on E. coli biofilm (CFUs)” value (E. coli biofilm) of the same compound?
Answer: Its value is “no discernable antibacterial effect or reduction in CFUs”.

Question: And the “S. agalactiae growth on coated substrate and in media” value [3]?
Answer: The value was “did not grow on the coated substrate nor in the media”.

Question: And the “total CFU count, complete plating of media” value (S. mutans; t=0 h, serial diluted)?
Answer: The value was “(8.0±3.2)×10^6 CFUs”.

Question: And the “reduction of CFU count in the well” value (S. mutans; t=4 h, from 1×10^6 CFUs at t=0)?
Answer: The value was 2 log.

Question: And the “total CFU count, complete plating of media” value (S. mutans; t=4 h, streaked across the entire plate)?
Answer: The value was 8 CFUs.

Question: And the “S. mutans CFU count in the media” value (S. mutans; t=6 h)?
Answer: The value was “zero and complete S. mutans death and absence of S. mutans”.
